Laboratory results reported in patent US20100035796A1 (priority 2005, published 2010).

Key:
estrogen receptor = assay: Activity on the estrogen receptor in ERE-luc mice, photometric analysis with CCD camera; type: in vivo
Protocol: (§1) The activity of two compounds of the invention, 17α-(5-acetoxy)pent-1-inyl-1,3,5(10)-estratriene-3,17β-diol and 17α-(5-propanoyl-oxy)pent-1-inyl-1,3,5(10)-estratriene-3,170-diol, was determined in a cell culture and in a transgenic animal model using female adult ERE-luc mice which were ovariectomised or sham-operated three weeks before the experiment. This model allows the anti-inflammatory activity, effect on the estrogen receptor and wound-healing activity to be evaluated.
(§2) Each of the two test compounds was dissolved immediately before use in 99% ethanol, and a 10 mM mother solution was prepared. The successive dilutions were performed in saline solution (0.9% NaCl in bidistilled water).
The activity on the estrogen receptor was evaluated by photometric analysis with CCD chamber after 0, 24, 48 and 72 hours. The animals were then killed, and the tissue surrounding the wound was removed.

CD74 = assay: Expression of inflammation markers in the wound model (second study): CD74; type: in vivo, mice
cutaneous wound = assay: Wound-healing activity: histological sections of the tissue surrounding the wound; type: in vivo, mice
Protocol: as §1, §2
Histological sections were prepared from the tissue surrounding the wound to evaluate the wound-healing activity. For the histological preparation, the tissue was fixed in 10% formalin (in buffer solution) and embedded in paraffin wax. The sections were stained with haematoxylin-eosin to evaluate the state of inflammation and wound-healing. The sections were also used to quantify the state of infiltration of the macrophages 4 days after the wound, using anti-Mac2 antibodies, and for further staining designed to detect the state of wound-healing and characterise the cells present in the wound area.

MIF = assay: Expression of inflammation markers in the wound model (second study): MIF; type: in vivo, mice
ERα = assay: Expression of estrogen receptors in ovariectomised animals: ERα-positive cells; type: in vivo, mice
TGF-β = assay: Expression of inflammation markers in the wound model (second study): TGF-β; type: in vivo, mice
ERβ = assay: Expression of estrogen receptors in ovariectomised animals: ERβ-positive cells; type: in vivo, mice
wound = conditions: cited from earlier work; for wound-healing on topical use: used topically, Ashcroft et al. 2003b
sun-damaged skin = conditions: hairless mice; Gendimenico et al. 2002; cited from earlier work
steroid sulphatase = target: T1, steroid sulphatase (Homo sapiens, UniProt P08842); conditions: R. P. Boivin et al., J. Med. Chem. 2000; cited from earlier work
T1 sequence (P08842 22-583): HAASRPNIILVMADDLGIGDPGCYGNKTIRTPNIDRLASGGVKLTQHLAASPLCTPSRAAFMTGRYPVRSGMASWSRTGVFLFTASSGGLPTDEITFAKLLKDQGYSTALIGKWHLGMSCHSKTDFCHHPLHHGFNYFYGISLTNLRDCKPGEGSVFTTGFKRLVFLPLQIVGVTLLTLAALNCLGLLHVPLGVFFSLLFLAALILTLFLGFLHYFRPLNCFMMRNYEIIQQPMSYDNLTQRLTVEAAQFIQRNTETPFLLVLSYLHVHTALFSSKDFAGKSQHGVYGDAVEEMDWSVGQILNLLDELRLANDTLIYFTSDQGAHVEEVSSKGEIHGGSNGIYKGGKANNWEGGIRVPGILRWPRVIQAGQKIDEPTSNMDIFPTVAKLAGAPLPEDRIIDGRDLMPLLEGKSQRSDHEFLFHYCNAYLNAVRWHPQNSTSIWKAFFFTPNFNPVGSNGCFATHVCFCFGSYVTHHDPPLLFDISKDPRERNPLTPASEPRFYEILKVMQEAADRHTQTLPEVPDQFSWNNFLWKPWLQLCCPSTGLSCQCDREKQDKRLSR

IL-6 = assay: Expression of inflammation markers in the wound model (second study): IL-6; type: in vivo, mice

For `CC(=O)OCCCC#C[C@]1(O)CC[C@H]2[C@@H]3CCc4cc(O)ccc4[C@H]3CC[C@@]21C` [Example 7, 17α-(5-acetoxy)pent-1-ynyl-1,3,5(10)-estratrien-3,17β-diol], which “estrogenic effect in areas other than the area of administration (systemic activity)” value (estrogen receptor; mouse, in vivo) is on record?
The value was “does not have a detectable estrogenic effect”.

What about the uterotrophic activity (estrogen receptor; mouse, in vivo) of the same molecule?
Its uterotrophic activity is “does not present uterotrophic activity”.

What about the “expression of CD74” value (CD74) of the same molecule?
The value was “significantly inhibited the expression”.

And the “efficacy of the wound-healing effect” value (cutaneous wound; second study, 5 animals per group, compared with estradiol)?
The value was “statistically similar to that of the natural hormone”.

What about the “effect on the wound-healing process” value (cutaneous wound; summary statement) of the same molecule?
Its value is “marked effect on the wound-healing process”.

And the “expression of MIF” value (MIF)?
Its value is “significantly inhibited the expression”.

What about the “number of cells that test positive for the α estrogen receptor” value (ERα) of the same molecule?
Its value is “does not act on the number of cells that test positive for the α receptor”.

And the “expression of TGF-β” value (TGF-β)?
The value was “significantly inhibited the expression”.

And the “number of cells that express the β estrogen receptor” value (ERβ)?
Its value is “does not significantly reduce the number of cells that express the β receptor”.

With `C[C@]12CC[C@@H]3c4ccc(O)cc4CC[C@H]3[C@@H]1C[C@@H](O)[C@@H]2O` [estriol] as the molecule, how does the “activity relative to estradiol” value (wound; Shah et al. 2001) read?
The value was “much less active than estradiol”.

And the “wound-healing on topical use” value (wound)?
Its value is “promote wound-healing”.

For `C[C@]12CC[C@@H]3c4ccc(O)cc4CC[C@H]3[C@@H]1CC[C@H]2O` [17α-estradiol], which “repair of sun-damaged skin” value (sun-damaged skin) is on record?
The value was “repair the sun-damaged skin of hairless mice”.

With `C[C@]12CC[C@@H]3c4ccc(O)cc4CC[C@H]3[C@@H]1CC[C@@]2(O)C#CCBr` [17α-(3-bromopropin-1-yl)estradiol] as the molecule, how does the “inhibitory effect on steroid sulphatase” value (steroid sulphatase) read?
Its value is “high”.

For `CCC(=O)OCCCC#CC1(O)CCC2C3CCc4cc(O)ccc4C3CCC21C` (stereo not drawn) [Example 8, 17α-(5-Propanoyloxy)pent-1-ynyl-1,3,5(10)-estratrien-3,17β-diol], which “estrogenic effect in areas other than the area of administration (systemic activity)” value (estrogen receptor; CCD camera, intradermal in loco) is on record?
Its value is “a slight systemic activity”.

For `CC12CCC3c4ccc(O)cc4CCC3C1CCC2(O)C#CCO` (stereo not drawn) [17α-(3-hydroxypropin-1-yl)estradiol], which “inhibitory effect on steroid sulphatase” value (steroid sulphatase) is on record?
The value was “very low”.

Which results are given for `C[C@]12CC[C@@H]3c4ccc(O)cc4CC[C@H]3[C@@H]1CC[C@@H]2O` [estradiol, 17beta-estradiol]?
expression of IL-6 (IL-6): limit the expression of all the inflammation proteins studied; expression of CD74 (CD74): limit the expression of all the inflammation proteins studied; repair of sun-damaged skin (sun-damaged skin): repair the sun-damaged skin of hairless mice; wound-healing on topical use (wound): promote wound-healing; expression of MIF (MIF): limit the expression of all the inflammation proteins studied; expression of TGF-β (TGF-β): limit the expression of all the inflammation proteins studied; number of cells that express the β estrogen receptor (ERβ): increases the number of cells that test positive for both receptors
